Data published in patent publication US20120059034A1, “NOVEL CRYSTALLINE HYDRATE, AMORPHOUS AND POLYMORPHIC FORMS OF DIHYDRO-BENZOXAZOLE-6-YL-ACETAMIDE DERIVATIVE AND PROCESSES FOR THEIR PREPARATION” (priority 2009, published 2012).
One block for each molecule: values may come before it.

What was measured:
[1] = Solubility and dissolution rate of solid forms; assay type: physicochemical
Description: (§1) 1. Characteristic reflections of radiprodil monohydrate are the followings: 4.9, 15.1, 18.1, 26.8 and 30.2±0.2° 2θ 2. Characteristic IR absorption bands of radiprodil monohydrate are the followings: 3644, 1836, 1809, 1789, 1645 and 919±4 cm^−1. 3. Characteristic Raman absorption bands of radiprodil monohydrate are the followings: 2887, 1642, 1484, 1295 and 726±4 cm^−1. […] While the dihydrate Form can be dehydrated relatively easily at elevated temperature, the monohydrate Form is sufficiently stable under such conditions. […] This relative stability of the monohydrate Form compared to the dihydrate Form is advantageous in formulation technological steps involving elevated temperatures.
(§2) 1. There are no reflections on XRPD pattern of radiprodil amorphous form. 2. Characteristic IR absorption bands of radiprodil amorphous form are the followings: 3275, 1768, 1685, 1219 and 544±4 cm^−1. 3. Characteristic Raman absorption bands of radiprodil amorphous are the followings: 3071, 1687, 1640, 1414, 1280 and 852±4 cm^−1. […] One particular advantage of the discovered amorphous Form is that it is relatively stable.

[2] = Storage stability of the amorphous form against crystallization; assay type: physicochemical; details: normal laboratory conditions, several months
Excerpt: as §2

[3] = Stress stability of the solid form (chemical impurities and physical form); assay type: physicochemical; details: stress conditions 25° C./75% RH; 50° C.; 50° C./oxygen; 50° C./75% RH; 50° C./90% RH; 75° C.; 75° C./oxygen, 10 days
Description: (§3) (IV) a DSC trace substantially in accordance with FIG. 5; • Characteristic diffraction and spectroscopic data of radiprodil anhydrate Form A are as follows: 1. Characteristic XRPD reflections of radiprodil anhydrate Form A are the following: 7.8, 22.0, 23.7, 27.0 and 27.6±0.2° 2 θ 2. Characteristic IR absorption bands of radiprodil anhydrate Form A are the following: 3295, 2863, 1852, 1768, 1058 and 635±4 cm^−1. 3. Characteristic Raman absorption bands of radiprodil anhydrate Form A are the following: 3106, 1680, 1641, 1470, 1274 and 507±4 cm^−1. […] All the other discovered solid forms can be converted to anhydrate Form A in suspension. This conversion takes place in absolute ethanol or in ethanol:water mixtures within a few hours. This relative stability advantage of anhydrous Form A of radiprodil can be favorably utilized in the development of active ingredient as well as dosage forms that are sufficiently stable both chemically and physically during extended shelf life. […] Due to its physical stability and non-hygroscopic character this polymorphic form is particularly advantageous in dosage formulation processes where the active ingredient is exposed to water during the process, such as wet granulation.

[4] = Hygroscopicity, weight gain at elevated humidity; assay type: physicochemical; details: 50° C./90% RH, 10 days
Description: as §3

[5] = Relative thermodynamic stability, conversion of solid forms in suspension; assay type: physicochemical; details: room temperature
Description: as §3

[6] = Pharmacokinetic profile in dogs (plasma concentrations by validated HPLC(UV) method); assay type: in vivo; details: 5 mg/kg dose adjusted to the anhydrous active substance, plasma samples up to 24 hours post dose
Description: Another essential value of the dihydrate Form is the observed better pharmacokinetic profile in dogs compared to the anhydrate Form A. Both forms in 5 mg/kg dose adjusted to the anhydrous active substance were administered to dogs and relevant pharmacokinetic parameters (AUC, Cmax) were calculated from the plasma profiles of the individual animals. The animals were […] seventeen hours before and six hours after drug administration. Plasma concentrations were measured in the trial samples taken up to 24 hours post dose by a validated HPLC(UV) method.

[7] = Thermal stability, loss of water of hydration at 50° C. in N2 atmosphere; assay type: physicochemical
Description: as §1

- dissolution rate among the solid forms [1]: largest
- solubility among the solid forms [1]: largest
- crystallization on storage [2]: without crystallization
SMILES: O=C(Nc1ccc2[nH]c(=O)oc2c1)C(=O)N1CCC(Cc2ccc(F)cc2)CC1 [amorphous Form, 2-[4-(4-Fluorobenzyl)-piperidin-1-yl]-2-oxo-N-(2-oxo-2,3-dihydro-benzoxazol-6-yl)-acetamide amorphous form]

- weight gain (hygroscopicity) [4]: did not show measurable weight gain
- thermodynamic stability among the discovered forms [5]: thermodynamically most stable form
- AUC24 [6]: 1554 ng·h/mL
- Cmax [6]: 125 ng/mL
SMILES: O=C(Nc1ccc2[nH]c(=O)oc2c1)C(=O)N1CCC(Cc2ccc(F)cc2)CC1 [anhydrate Form A, 2-[4-(4-Fluorobenzyl)-piperidin-1-yl]-2-oxo-N-(2-oxo-2,3-dihydro-benzoxazol-6-yl)-acetamide anhydrate Form A]
- change of sum of chemical impurities and of physical form compared to the starting material [3]: neither the sum of chemical impurities nor the physical form has changed

- time to loss of water of hydration [7]: 2 h
- AUC24 ([6]; dihydrate): 4491 ng·h/mL
- Cmax ([6]; dihydrate): 395 ng/mL
SMILES: O=C(Nc1ccc2[nH]c(=O)oc2c1)C(=O)N1CCC(Cc2ccc(F)cc2)CC1 [dihydrate Form, 2-[4-(4-Fluorobenzyl)-piperidin-1-yl]-2-oxo-N-(2-oxo-2,3-dihydro-benzoxazol-6-yl)-acetamide dihydrate]

- weight loss (water of hydration) ([7]; same conditions as dihydrate Form (2 hours)): does not show detectable weight loss
- solubility compared to anhydrate Form A [1]: greater solubility
SMILES: O=C(Nc1ccc2[nH]c(=O)oc2c1)C(=O)N1CCC(Cc2ccc(F)cc2)CC1 [monohydrate Form, 2-[4-(4-Fluorobenzyl)-piperidin-1-yl]-2-oxo-N-(2-oxo-2,3-dihydro-benzoxazol-6-yl)-acetamide monohydrate]
